In patent US12617795B2, “Substituted 6,7-dihydro-5H-pyrrolo[3,4-d]pyrimidines, 5,7-dihydrofuro[3,4-d]pyrimidines, and pyrido[2,3-d]pyrimidines as KCC2 modulators” (Astrazeneca AB, priority 2020, dated 2026) one finds EC50 data, which are given here for two compounds.

The EC50 is the concentration needed to bring the measured effect to its halfway point.

The target of this assay is T1, KCC2 (Homo sapiens, UniProt Q9H2X9).
T1 construct: expressed in transfected cells; host or cells: HEK293 cells electroporated (Maxcyte STX) with the pcDNA3.1 KCC2 plasmid
T1 sequence (Q9H2X9 1-1139): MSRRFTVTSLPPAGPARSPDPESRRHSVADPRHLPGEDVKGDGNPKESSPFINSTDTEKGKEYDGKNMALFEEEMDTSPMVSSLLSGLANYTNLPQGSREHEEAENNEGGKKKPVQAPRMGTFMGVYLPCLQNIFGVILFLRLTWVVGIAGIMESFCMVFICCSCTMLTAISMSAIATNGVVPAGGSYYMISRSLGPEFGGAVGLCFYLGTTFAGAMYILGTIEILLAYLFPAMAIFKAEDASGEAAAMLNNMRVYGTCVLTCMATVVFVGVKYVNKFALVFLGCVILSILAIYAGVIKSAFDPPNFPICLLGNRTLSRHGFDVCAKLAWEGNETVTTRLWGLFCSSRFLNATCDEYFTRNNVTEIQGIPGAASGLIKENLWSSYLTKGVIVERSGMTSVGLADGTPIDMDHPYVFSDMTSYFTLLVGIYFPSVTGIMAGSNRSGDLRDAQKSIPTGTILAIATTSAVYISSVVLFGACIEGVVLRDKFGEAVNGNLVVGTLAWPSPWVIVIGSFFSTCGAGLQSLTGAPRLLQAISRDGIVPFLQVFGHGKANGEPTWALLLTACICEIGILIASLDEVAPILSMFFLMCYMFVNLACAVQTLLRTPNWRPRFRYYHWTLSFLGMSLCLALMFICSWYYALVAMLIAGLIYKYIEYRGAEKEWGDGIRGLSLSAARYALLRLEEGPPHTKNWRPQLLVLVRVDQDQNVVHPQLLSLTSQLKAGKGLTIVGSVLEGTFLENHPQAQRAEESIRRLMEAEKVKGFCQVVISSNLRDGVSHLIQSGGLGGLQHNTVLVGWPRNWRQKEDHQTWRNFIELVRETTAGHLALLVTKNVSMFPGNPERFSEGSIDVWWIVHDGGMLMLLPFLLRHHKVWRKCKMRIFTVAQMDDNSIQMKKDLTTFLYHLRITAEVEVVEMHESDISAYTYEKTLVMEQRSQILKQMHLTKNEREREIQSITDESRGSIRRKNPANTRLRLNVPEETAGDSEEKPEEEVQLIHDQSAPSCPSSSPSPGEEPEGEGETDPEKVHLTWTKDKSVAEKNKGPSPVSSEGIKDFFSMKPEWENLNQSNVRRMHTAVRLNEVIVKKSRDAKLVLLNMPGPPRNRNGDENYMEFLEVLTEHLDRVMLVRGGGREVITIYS
Description: KCC2 thallium transport FLIPR-based assay (Tl+ influx in HEK293 cells expressing KCC2). Format: cell-based. The settings on record: 90 min compound incubation at RT, thallium flux at 120 s used to determine EC50. In a few lines: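 Transient electroporation of codon-optimised human KCC2 into HEK293 cells, plated and cultured 48 h before dye loading (1 h, RT). Compounds run as a 12-point 1:2 series from 100 μM top, 90 min RT in buffer containing bumetanide; Tl+ flux read by FLIPR after stimulus addition, 1 s intervals over 120 s, with the 120 s signal used for EC50.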

As for `CC(C)c1ccc(Nc2nc(N3CCO[C@@H](C)C3)nc3c2CN(C(C)C)C3=O)cc1` [Example 6, 2-[(2S)-2-methylmorpholin-4-yl]-6-(propan-2-yl)-4-{[4-(propan-2-yl)phenyl]amino}-5,6-dihydro-7H-pyrrolo[3,4-d]pyrimidin-7-one], the EC50 was determined as 6.82 µM.

`C[C@@H]1CN(c2nc(Nc3ccc(C4CCC4)cc3)c3c(n2)C(=O)N(CCN(C)C)C3)CCO1` [Example 75, 4-[(4-cyclobutylphenyl)amino]-6-[2-(dimethylamino)ethyl]-2-[(2R)-2-methylmorpholin-4-yl]-5,6-dihydro-7H-pyrrolo[3,4-d]pyrimidin-7-one] had an EC50 of 3.77 µM.
